These compounds were tested on HIV-1 IIIB (assay: HOS HIV-1 infectivity assay). Conditions: Human immunodeficiency virus 1, IIIB; as determined by the infectivity assay; strain not stated in Table 2; read-out: Activity Level.
Type: cell-based
Description: Compounds were profiled against two HIV-1 viruses, the M-tropic (CCR5 utilizing) Ba-L strain and the T-tropic (CXCR4 utilizing) IIIB strain. Both viruses were propagated in human peripheral blood lymphocytes. Compounds were tested for there ability to block infection of the HOS cell line (expressing hCXCR4/hCCR5/hCD4/pHIV-LTR-luciferase) by either HIV-1 Ba-L or HIV-1 IIIB. Compound cytotoxicity was also examined in the absence of virus addition.
HOS cells (expressing hCXCR4/hCCR5/hCD4/pHIV-LTR-luciferase) were harvested and diluted in Dulbeccos modified Eagles media supplemented with 2% FCS and non-essential amino acid to a concentration of 60,000 cells/ml. The cells were plated into 96-well plates (100 ul per well) and the plates were placed in a tissue culture incubator (37° C.; 5% CO2/95% air) for a period of 24 h.
Subsequently, 50 ul of the desired drug solution (4 times the final concentration) was added to each well and the plates were returned to the tissue culture incubator (37° C.; 5% CO2/95% air) for 1 h. Following this incubation 50 ul of diluted virus was added to each well (approximately 2 million RLU per well of virus). The plates were returned to the tissue culture incubator (37° C.; 5% CO2/95% air) and were incubated for a further 96 h.
Following this incubation the endpoint for the virally infected cultures was quantified following addition of Steady-Glo Luciferase assay system reagent (Promega, Madison, Wis.). Cell viability or non-infected cultures was measured using a CellTiter-Glo luminescent cell viability assay system (Promega, Madison, Wis.). All luminescent readouts are performed on a Topcount luminescence detector (Packard, Meridien, Conn.).

SMILES | IC50 [nM]
NCCCCn1c(CN(CCc2ccccc2)C2CCCc3cccnc32)nc2ccccc21 (stereo not shown) [Example 53, N-{[1-(4-Aminobutyl)-1H-benzimidazol-2-yl}methyl]-N-(2-phenylethyl)-5,6,7,8-tetrahydro-8-quinolinamine] | 500 to 10000
CC(C)CCN(Cc1nc2ccccc2n1CCCCN)C1CCCc2cccnc21 (stereo not shown) [Example 54, N-{[1-(4-Aminobutyl)-1H-benzimidazol-2-yl]methyl}-N-(3-methylbutyl)-5,6,7,8-tetrahydro-8-quinolinamine] | 100 to 500
NCCCCn1c(CN(Cc2ccccc2)C2CCCc3cccnc32)nc2ccccc21 (stereo not shown) [Example 55, N-{[1-(4-Aminobutyl)-1H-benzimidazol-2-yl]methyl}-N-(Phenylmethyl)-5,6,7,8-tetrahydro-8-quinolinamine] | 500 to 10000
CN(C)CC#CCn1c(CN(C)C2CCCc3cccnc32)nc2ccccc21 (stereo not shown) [Example 56, N-({1-[4-(Dimethylamino)-2-butyn-1-yl}-1H-benzimidazol-2-yl]methyl)-N-methyl-5,6,7,8-tetrahydro-8-quinolinamine] | 100 to 500
CN(Cc1nc2ccccc2n1CCCN1CCOCC1)C1CCCc2cccnc21 (stereo not shown) [Example 57, N-Methyl-N-([1-[3-(4-morpholinyl)propyl]-1H-benzimidazol-2-yl]methyl)-5,6,7,8-tetrahydro-8-quinolinamine] | 100 to 500
CN(Cc1nc2ccccc2n1C/C=C/CN)C1CCCc2cccnc21 (stereo not shown) [Example 58, N-({1-[(2E)-4-Amino-2-buten-1-yl]-1H-benzimidazol-2-yl}methyl)-N-methyl-5,6,7,8-tetrahydro-8-quinolinamine] | 100 to 500
CN1CCCCC1CCCn1c(CN(C)C2CCCc3cccnc32)nc2ccccc21 (stereo not shown) [Example 59, N-Methyl-N-({1-[3-(1-methyl-2-piperidinyl)propyl]-1H-benzimidazol-2-yl}methyl)-5,6,7,8-tetrahydro-8-quinolinamine] | 100 to 500
CC(C)N(Cc1nc2ccccc2n1CCCN(C)C)C1CCCc2cccnc21 (stereo not shown) [Example 60, N-({1-[3-(Dimethylamino)propyl]-1H-benzimidazol-2-yl}methyl)-N-(1-methylethyl)-5,6,7,8-tetrahydro-8-quinolinamine] | < 100
CN(Cc1nc2ccccc2n1CCCNC(=N)N)C1CCCc2cccnc21 (stereo not shown) [Example 61, N-[3-(2-{[Methyl(5,6,7,8-tetrahydro-8-quinolinyl)amino]methyl}-1H-benzimidazol-1-yl)propyl]guanidine] | < 100
CN(Cc1nc2ccccc2n1CCCNS(=O)(=O)c1ccccc1)C1CCCc2cccnc21 (stereo not shown) [Example 62, N-[3-(2-{[Methyl(5,6,7,8-tetrahydro-8-quinolinyl)amino]methyl}-1H-benzimidazol-1-yl)propyl]benzenesulfonamide] | 100 to 500
CN(Cc1nc2ccccc2n1CCCNS(C)(=O)=O)C1CCCc2cccnc21 (stereo not shown) [Example 63, N-[3-(2-{[Methyl(5,6,7,8-tetrahydro-8-quinolinyl)amino]methyl}-1H-benzimidazol-1-yl)propyl]methanesulfonamide] | 100 to 500
CC(C)CCNCCCn1c(CN(C)C2CCCc3cccnc32)nc2ccccc21 (stereo not shown) [Example 64, N-Methyl-N-[(1-{3-[(3-methylbutyl)amino]propyl}-1H-benzimidazol-2-yl)methyl]-5,6,7,8-tetrahydro-8-quinolinamine] | < 100
CC(C)CCN(CCCn1c(CN(C)C2CCCc3cccnc32)nc2ccccc21)CCC(C)C (stereo not shown) [Example 65, N-[(1-[3-[Bis(3-methylbutyl)amino]propyl]-1H-benzimidazol-2-yl)methyl]-N-methyl-5,6,7,8-tetrahydro-8-quinolinamine] | 500 to 10000
CC(C)CCN(Cc1nc2ccccc2n1CC(C)(C)CN(C)C)C1CCCc2cccnc21 (stereo not shown) [Example 66, N-({1-[3-(Dimethylamino)-2,2-dimethylpropyl]-1H-benzimidazol-2-yl}methyl)-N-(3-methylbutyl)-5,6,7,8-tetrahydro-8-quinolinamine] | 500 to 10000
CN(C)CC(C)(C)Cn1c(CN(C)C2CCCc3cccnc32)nc2ccccc21 (stereo not shown) [Example 67, N-({1-[3-(Dimethylamino)-2,2-dimethylpropyl]-1H-benzimidazol-2-yl}methyl)-N-methyl-5,6,7,8-tetrahydro-8-quinolinamine] | < 100
CN(Cc1nc2ccccc2n1CC(C)(C)CNC(=N)N)C1CCCc2cccnc21 (stereo not shown) [Example 68, N-[2,2-Dimethyl-3-(2-{[methyl(5,6,7,8-tetrahydro-8-quinolinyl)amino]methyl}-1H-benzimidazol-1-yl)propyl]guanidine] | < 100
CC(C)CCNCC(C)(C)Cn1c(CN(C)C2CCCc3cccnc32)nc2ccccc21 (stereo not shown) [Example 69, N-[(1-{2,2-Dimethyl-3-[(3-methylbutyl)amino]propyl}-1H-benzimidazol-2-yl)methyl]-N-methyl-5,6,7,8-tetrahydro-8-quinolinamine] | 100 to 500
CN(Cc1nc2ccccc2n1CCn1ccnc1)C1CCCc2cccnc21 (stereo not shown) [Example 70, N-({1-[2-(1H-Imidazol-1-yl)ethyl]-1H-benzimidazol-2-yl}methyl)-N-methyl-5,6,7,8-tetrahydro-8-quinolinamine] | 100 to 500
CN(Cc1nc2ccccc2n1CCc1cncn1C)C1CCCc2cccnc21 (stereo not shown) [Example 71, N-Methyl-N-({1-[2-(1-methyl-1H-imidazol-5-yl)ethyl]-1H-benzimidazol-2-yl}methyl)-5,6,7,8-tetrahydro-8-quinolinamine] | 100 to 500
CN(Cc1nc2ccccc2n1CCc1cn(C)cn1)C1CCCc2cccnc21 (stereo not shown) [Example 72, N-Methyl-N-({1-[2-(1-methyl-1H-imidazol-4-yl)ethyl]-1H-benzimidazol-2-yl}methyl)-5,6,7,8-tetrahydro-8-quinolinamine] | 500 to 10000
CN(C)Cc1ccc(-n2c(CN(C)C3CCCc4cccnc43)nc3ccccc32)cc1 (stereo not shown) [Example 73, N-[(1-{4-[(Dimethylamino)methyl]phenyl}-1H-benzimidazol-2-yl)methyl]-N-methyl-5,6,7,8-tetrahydro-8-quinolinamine] | 500 to 10000
CN(C)Cc1ccccc1-n1c(CN(C)C2CCCc3cccnc32)nc2ccccc21 (stereo not shown) [Example 74, N-[(1-{2-[(Dimethylamino)methyl]phenyl}-1H-benzimidazol-2-yl)methyl]-N-methyl-5,6,7,8-tetrahydro-8-quinolinamine] | 500 to 10000
CN(Cc1nc2ccccc2n1C[C@@H]1CCCNC1)[C@H]1CCCc2cccnc21 [Example 75e, (8S)—N-Methyl-N-({1-[(3R)-3-piperidinylmethyl]-1H-benzimidazol-2-yl}methyl)-5,6,7,8-tetrahydro-8-quinolinamine] | < 100
CN1CCC[C@@H](Cn2c(CN(C)[C@H]3CCCc4cccnc43)nc3ccccc32)C1 [Example 75f, (8S)—N-Methyl-N-[(1-{[(3R)-1-methyl-3-piperidinyl]methyl}-1H-benzimidazol-2-yl)methyl]-5,6,7,8-tetrahydro-8-quinolinamine] | < 100
CN1CCC[C@H](Cn2c(CN(C)[C@@H]3CCCc4cccnc43)nc3ccccc32)C1 [Example 76, (8R)—N-Methyl-N-[(1-{[(3S)-1-methyl-3-piperidinyl]methyl}-1H-benzimidazol-2-yl)methyl]-5,6,7,8-tetrahydro-8-quinolinamine] | 100 to 500

Reference: patent US20080096861A1, “Chemical Compounds” (SMITHKLINE BEECHAM CORPORATION, priority 2004, published 2008)
